According to paper PMC10985270 (Acta Pharmaceutica Sinica. B, 2024):
Read-outs that look alike come from different tables or passages of the source.

Legend:
hMAO-B [1] = biological target: T1, hMAO-B (Homo sapiens, UniProt P27338); test: At-line nanofractionation hMAO-B screening of mixed standards; assay type: biochemical; conditions: mixed standards 100 μmol/L
T1 sequence (P27338 1-520): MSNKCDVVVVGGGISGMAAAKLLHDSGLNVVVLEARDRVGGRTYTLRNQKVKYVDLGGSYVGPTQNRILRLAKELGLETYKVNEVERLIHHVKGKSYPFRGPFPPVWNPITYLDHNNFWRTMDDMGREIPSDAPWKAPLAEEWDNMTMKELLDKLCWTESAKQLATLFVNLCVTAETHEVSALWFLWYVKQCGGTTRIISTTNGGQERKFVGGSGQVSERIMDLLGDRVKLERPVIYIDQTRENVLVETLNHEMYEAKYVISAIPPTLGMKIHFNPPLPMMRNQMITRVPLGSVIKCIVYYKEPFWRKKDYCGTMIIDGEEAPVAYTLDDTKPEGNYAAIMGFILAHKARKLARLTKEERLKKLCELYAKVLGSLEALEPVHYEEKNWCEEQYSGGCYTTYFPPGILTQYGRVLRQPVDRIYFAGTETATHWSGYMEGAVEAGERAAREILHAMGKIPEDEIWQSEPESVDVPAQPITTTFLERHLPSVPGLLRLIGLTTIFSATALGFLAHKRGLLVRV

hMAO-B [2] = biological target: T1, hMAO-B; test: hMAO-B fluorescence bioassay; assay type: biochemical; conditions: for SI: selectivity index for the MAO-B isoform: ratio IC50(MAO-A)/IC50(MAO-B)
hMAO-A = biological target: T2, hMAO-A (Homo sapiens, UniProt P21397); test: hMAO-A fluorescence bioassay; assay type: biochemical
T2 sequence (P21397 1-527): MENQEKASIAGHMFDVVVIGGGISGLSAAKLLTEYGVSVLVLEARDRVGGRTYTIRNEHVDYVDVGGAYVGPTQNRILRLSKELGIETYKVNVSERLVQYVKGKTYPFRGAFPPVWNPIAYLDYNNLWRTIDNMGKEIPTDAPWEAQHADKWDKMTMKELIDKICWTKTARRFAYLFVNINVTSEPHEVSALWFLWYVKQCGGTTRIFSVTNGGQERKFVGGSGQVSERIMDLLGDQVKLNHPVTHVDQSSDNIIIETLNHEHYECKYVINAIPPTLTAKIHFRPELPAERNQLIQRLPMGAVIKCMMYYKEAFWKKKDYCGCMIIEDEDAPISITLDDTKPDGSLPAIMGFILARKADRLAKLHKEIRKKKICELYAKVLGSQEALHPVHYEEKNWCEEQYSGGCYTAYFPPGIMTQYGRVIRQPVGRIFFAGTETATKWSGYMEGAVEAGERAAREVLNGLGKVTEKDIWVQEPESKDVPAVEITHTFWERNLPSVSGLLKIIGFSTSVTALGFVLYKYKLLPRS

SH-SY5Y cells = test: Neuroprotection against 6-OHDA-induced toxicity in SH-SY5Y cells; assay type: cell-based; conditions: Homo sapiens, read-out: EC50, neuroprotective effect
hMAO-B [3] = biological target: T1, hMAO-B; test: Reversibility of hMAO-B inhibition; assay type: biochemical; conditions: KYN 46 μmol/L

| IC50 (hMAO-B [2]) | IC50 (hMAO-A) | SI: selectivity index for the MAO-B isoform (hMAO-B [2]) | SMILES | EC50 (SH-SY5Y cells) | other results |
| --- | --- | --- | --- | --- | --- |
| 24 µM | – | – | COc1ccc(-c2coc3cc(O)ccc3c2=O)cc1O [Calycosin, reference compound] | – | Activity peak in bioactivity chromatogram (hMAO-B [1]): displayed inhibitory activity |
| – | 60.9 ± 5.85 µM | 1.840 | O=C(O)/C=C/c1ccc(O)c(O)c1 [Caffeic acid] | – | IC50 (hMAO-B [2]; Inhibition (IC50) hMAO-B, Table 1): 33.1 ± 7.57 µM |
| 69.6 ± 14.4 µM | 82.4 ± 14.6 µM | – | O=C(/C=C/c1ccc(O)c(O)c1)O[C@@H]1C[C@](O)(C(=O)O)C[C@@H](O)[C@H]1O [Chlorogenic acid] | – | – |
| – | – | – | C#CCN[C@@H]1CCc2ccccc21 [Rasagiline] | 0.896 µM | Activity peak in bioactivity chromatogram (hMAO-B [1]): displayed inhibitory activity |
| 45.7 ± 2.6 µM | 86.1 ± 15.3 µM | 1.884 | COc1cc(C=O)ccc1O [Vanillin] | – | – |
| 0.494 ± 0.132 µM | 102 ± 13.1 µM | 207.362 | CCCC[C@@H]1OC(=O)C2=CCCC[C@H]21 [Neocnidilide] | 1.16 µM | Reversibility of hMAO-B inhibition (hMAO-B [3]): reversible; Inhibitory activity against hMAO-B (in words) (hMAO-B [2]; phthalides): highest activity; SI: selectivity index for the MAO-B isoform (hMAO-B [2]; listed as neocnidilide): 207 |
| – | – | – | C[C@H](NCc1ccc(OCc2cccc(F)c2)cc1)C(N)=O [Safinamide, reference compound] | 1.08 µM | Reversibility of hMAO-B inhibition (hMAO-B [3]): reversible |
